According to paper PMC3125149, “SCYX-7158, an Orally-Active Benzoxaborole for the Treatment of Stage 2 Human African Trypanosomiasis” (PLoS Neglected Tropical Diseases, 2011):
Read-outs that look alike come from different tables or passages of the source. Blank lines part the entries; values can stand above or below the compound they belong to.

Tests used:
T. b. brucei 427 = assay: In vitro compound sensitivity assay (resazurin viability); type: cell-based; conditions: T. b. brucei S427; at 10 µM
Source text: The bloodstream-form T. b. brucei 427 strain was obtained from Dr. K. Stuart (Seattle Biomedical Research Institute, Seattle, WA) and was used for routine assessment of compound sensitivity in vitro. Additional strains used in vitro include T. b. rhodesiense STIB900, isolated in 1992 from a patient in Tanzania, and T. b. gambiense 108R, isolated from a patient in Democratic Republic of Congo in 2005. T. b. brucei EATRO 110 was a generous gift from the late William Trager of the Rockefeller University. T. b. brucei TREU 667 strains were kindly provided by F. W. Jennings at the University of Glasgow. Both T. b. brucei EATRO 110 and TREU 667 were cultured according to previously described conditions and used for in vivo studies.[18], [19]
T. b. brucei was cultured in complete HMI-9 medium,[20] which contains 10% fetal bovine serum (FBS) (Invitrogen, Carlsbad, CA), 10% Serum Plus medium (SAFC Biosciences, Lenexa, KS), and 100 units/mL penicillin and 0.1 mg/mL streptomycin. The trypanosomes were propagated in T-25 vented cap flasks (Corning Inc., Lowell, MA) at 37°C and 5% CO2 with humidity. To ensure log growth phase, trypanosomes were sub-cultured at appropriate dilutions (typically 1∶100) every 2–3 days in fresh HMI-9 medium. T. b. rhodesiense parasites were grown in MEM medium with Earle's salts supplemented with 15% horse serum. For T. b. gambiense, the MEM medium was supplemented with 5% heat-inactivated fetal calf serum (FCS) and 15% human serum.[21] L929 mouse fibroblast cells (ATCC CCL1, American Type Culture Collection, Rockville, MD) were used to determine parasite versus mammalian cell selectivity. Cells were cultured in Dulbecco's Modified Eagle Medium (DMEM), supplemented with 10% FBS, L-glutamine and 100 units/mL penicillin and 0.1 mg/mL streptomycin. MDCKII-hMDR1 cells were generously provided by P. Borst at the Netherlands Kancer Institute. Cells were cultured in DMEM with Glutamax, 10% (v/v) FBS, and 100 units/mL penicillin and 0.1 mg/mL streptomycin. Cell monolayers were fed with cell culture media 24 h after seeding and used for permeability studies 3 days later.
(§1) Compounds to be tested were serially diluted in DMSO and added to 96-well plates to give final concentrations ranging from 5 to 0.01 µg/mL. T. b. brucei parasites in the log phase of growth were diluted in HMI-9 media and added to each well for a final concentration of 1×10^4 parasites per well. For the sensitivity assays using T. b. rhodesiense and T. b. gambiense, pararasites were cultured in MEM supplemented with Baltz components (8), diluted in the aforementioned culture media, and added to each well at a density of 1×10^3 cells/well. The final concentration of DMSO was 0.5% and the total volume was 100 µL/well. After a 72 h incubation, resazurin (Sigma-Aldrich, St. Louis, MO) was added to each well [20 µL of 25 mg/100 mL stock in phosphate buffered saline (PBS)] and incubated for an additional 4–6 h.[22] To assess cell viability, fluorescence was quantified using an EnVision Multilabel Plate Reader (Perkin Elmer, Waltham, MA) at an excitation wavelength of 530 nm and emission of 590 nm. Triplicate data points were averaged to generate sigmoidal dose-response curves and determine IC50 values using XLfit curve fitting software from IDBS (Guilford, UK). The IC50 is defined as the amount of compound required to decrease parasite or cell viability by 50% compared to those grown in the absence of the test compound. […]

CYP1A2 = target: T1, CYP1A2 (Homo sapiens, UniProt P05177); assay: P450-Glo cytochrome P450 inhibition; type: biochemical; conditions: human recombinant CYP1A2
T1 construct: purchased Promega Inc., Madison, WI
Description: (§2) The potential for compound to exert drug-drug interactions that are mediated through inhibition of cytochrome P450 activities was assessed using P450-Glo assay kits (Promega Inc., Madison, WI). Assays for human cytochrome P450 isoforms 3A4, 1A2, 2C9, 2C19, and 2D6 were performed in triplicate according to the manufacturer's instructions over the concentration range 1–100 µM (n = 6 levels). Briefly, SCYX-7158 was added to membrane preparations containing human recombinant CYP450 enzymes together with luminogenic substrates specific to each isoform. Specific CYP450 inhibitors were included as positive controls (ketoconazole, CYP3A4; alpha-napthoflavone, 1A2; sulfaphenazole, CYP2C9; troglitazone, 2C19, and quinidine, CYP2D6). Reactions were initiated by addition of NADPH-regenerating solution and were allowed to incubate for an additional 15–30 min (isoform dependent). Luciferin detection reagent, containing the luciferin-labeled probe substrate, was then added. Luminescence was recorded on an EnVision Multilabel Plate Reader. Calculation of IC50 concentrations for each enzyme was determined using GraphPad Prism (V5.01).

CYP2C19 = target: T2, CYP2C19 (Homo sapiens, UniProt P33261); assay: P450-Glo cytochrome P450 inhibition; type: biochemical; conditions: human recombinant CYP2C19
T2 construct: purchased Promega Inc., Madison, WI
Description: as §2

CYP2C9 = target: T3, CYP2C9 (Homo sapiens, UniProt P11712); assay: P450-Glo cytochrome P450 inhibition; type: biochemical; conditions: human recombinant CYP2C9
T3 construct: purchased Promega Inc., Madison, WI
Description: as §2

CYP2D6 = target: T4, CYP2D6 (Homo sapiens, UniProt P10635); assay: P450-Glo cytochrome P450 inhibition; type: biochemical; conditions: human recombinant CYP2D6
T4 construct: purchased Promega Inc., Madison, WI
Description: as §2

CYP3A4 = target: T5, CYP3A4 (Homo sapiens, UniProt P08684); assay: P450-Glo cytochrome P450 inhibition; type: biochemical; conditions: human recombinant CYP3A4
T5 construct: purchased Promega Inc., Madison, WI
Description: as §2

[1] = Pharmacokinetics in uninfected mice; type: in vivo, mouse
Description: (§3) The blood distribution, CNS disposition and pharmacokinetics of SCYX-7158 were evaluated in infected or non-infected rodents following intravenous or oral administration of compounds. Pharmacokinetics and bioavailability of SCYX-7158 were also evaluated in non-infected beagle dogs and cynomolgus monkeys. In-life phases of non-infected rodent studies were performed at Vivisource (Waltham, MA); studies in non-naïve cynomolgus monkeys were performed by SNBL USA (Everett, WA). Male CD-1 mice (∼25 g), male Sprague-Dawley rats (∼225 g), or male cynomolgus monkeys (∼3–5 kg) were administered test article by either bolus intravenous injection (IV) or oral gavage. Animals in the IV groups received a single 2 mg/kg IV dose. Animals received oral doses of test articles as either single or twice daily doses ranging from 8 mg/kg to 50 mg/kg. All doses were administered as clear colorless solutions in either 50% (v/v) PEG 400: 20% (v/v) ethanol: 30% (v/v) carboxymethylcellulose (0.5% w/v in sterile water for injection) or 2% (v/v) ethanol: 5% (w/v) dextrose in sterile water for injection. […] For pharmacokinetic analysis, blood samples were collected from mice via cardiac puncture under terminal anaesthesia. Serial blood samples were collected from rats via a vascular access port located in the lateral saphenous vein. Mice and rats were euthanized in a CO2 chamber before collection of terminal blood samples or brain tissue. Blood samples were collected into polypropylene tubes containing K2EDTA anticoagulant and stored on ice until centrifuged for the preparation of plasma. Plasma was stored at −70°C. Whole brains were collected following decapitation, blotted dry, placed into polypropylene containers and then immediately frozen at approximately −70°C. CSF was collected from rats via cisterna magna puncture, placed in sterile polypropylene tubes, and stored at approximately −70°C. […] Treated samples were gently mixed at room temperature for 10 min, and then centrifuged at approximately 3000×g for 15 min at 15°C. The supernatants were transferred to 96-well plates or HPLC vials for analysis by LC-MS/MS. Pharmacokinetic parameters were calculated from composite mean plasma or tissue data using non-compartmental (oral and intravenous routes) and bi-exponential (intravenous route) analyses in Microsoft Excel.

[2] = Pharmacokinetics in uninfected rats; type: in vivo, rat
Description: as §3

[3] = Pharmacokinetics in cynomolgus monkeys; type: in vivo, cynomolgus monkey
Description: as §3

[4] = Pharmacokinetics in uninfected mice; type: in vivo, mouse; conditions: male, CD-1, mouse; oral dose of 56 mg/kg SCYX-7158, plasma
T. b. brucei TREU 667 = conditions: cited from earlier work
[5] = mouse, in vivo, po; cited from earlier work
GVR35 stage 2 HAT model = conditions: ref R. Brun, personal communication, cited from earlier work
T. b. brucei = assay: Effect of serum on trypanocidal activity; type: cell-based; conditions: 25% mouse serum or 50% bovine serum
Description: as §1

T2 sequence (P33261 whole entry): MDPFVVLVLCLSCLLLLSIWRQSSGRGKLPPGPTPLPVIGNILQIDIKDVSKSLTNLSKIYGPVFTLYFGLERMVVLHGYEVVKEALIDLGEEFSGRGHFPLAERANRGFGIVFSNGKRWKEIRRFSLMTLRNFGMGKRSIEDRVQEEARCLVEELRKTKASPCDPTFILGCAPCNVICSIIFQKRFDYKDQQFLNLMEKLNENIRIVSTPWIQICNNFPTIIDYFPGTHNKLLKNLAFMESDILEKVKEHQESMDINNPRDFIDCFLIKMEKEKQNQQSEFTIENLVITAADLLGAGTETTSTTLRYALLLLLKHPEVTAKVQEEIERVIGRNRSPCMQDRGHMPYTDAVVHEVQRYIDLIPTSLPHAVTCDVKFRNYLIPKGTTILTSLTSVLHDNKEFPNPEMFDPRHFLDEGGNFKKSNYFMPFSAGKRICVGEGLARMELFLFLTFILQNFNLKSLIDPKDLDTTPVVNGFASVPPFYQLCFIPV
T1 sequence (P05177 whole entry): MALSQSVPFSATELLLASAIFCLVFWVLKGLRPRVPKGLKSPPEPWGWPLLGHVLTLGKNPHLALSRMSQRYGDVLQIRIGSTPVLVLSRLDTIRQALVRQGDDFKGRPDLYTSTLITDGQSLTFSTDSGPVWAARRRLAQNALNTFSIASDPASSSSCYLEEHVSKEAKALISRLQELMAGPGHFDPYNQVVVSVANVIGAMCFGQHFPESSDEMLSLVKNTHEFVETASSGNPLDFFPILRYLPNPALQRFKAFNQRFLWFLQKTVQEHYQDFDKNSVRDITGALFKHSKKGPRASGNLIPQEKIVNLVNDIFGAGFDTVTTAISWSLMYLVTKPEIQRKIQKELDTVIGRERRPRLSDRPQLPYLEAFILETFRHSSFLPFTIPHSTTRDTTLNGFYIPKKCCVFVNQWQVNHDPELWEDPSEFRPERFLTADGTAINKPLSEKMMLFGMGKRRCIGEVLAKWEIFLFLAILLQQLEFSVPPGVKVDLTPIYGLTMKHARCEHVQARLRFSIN
T3 sequence (P11712 whole entry): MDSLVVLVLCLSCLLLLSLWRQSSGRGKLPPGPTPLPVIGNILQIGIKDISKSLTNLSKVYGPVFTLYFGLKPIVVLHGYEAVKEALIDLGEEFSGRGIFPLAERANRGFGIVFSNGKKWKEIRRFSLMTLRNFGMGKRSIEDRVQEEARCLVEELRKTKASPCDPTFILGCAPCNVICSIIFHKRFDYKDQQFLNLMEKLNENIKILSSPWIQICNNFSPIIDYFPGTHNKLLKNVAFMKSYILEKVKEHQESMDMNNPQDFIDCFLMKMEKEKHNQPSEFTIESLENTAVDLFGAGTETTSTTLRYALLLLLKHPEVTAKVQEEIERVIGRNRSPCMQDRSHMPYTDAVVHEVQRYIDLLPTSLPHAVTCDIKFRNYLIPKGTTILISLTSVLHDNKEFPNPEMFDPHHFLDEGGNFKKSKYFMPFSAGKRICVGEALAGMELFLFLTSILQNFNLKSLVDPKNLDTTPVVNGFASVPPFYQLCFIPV
T4 sequence (P10635 whole entry): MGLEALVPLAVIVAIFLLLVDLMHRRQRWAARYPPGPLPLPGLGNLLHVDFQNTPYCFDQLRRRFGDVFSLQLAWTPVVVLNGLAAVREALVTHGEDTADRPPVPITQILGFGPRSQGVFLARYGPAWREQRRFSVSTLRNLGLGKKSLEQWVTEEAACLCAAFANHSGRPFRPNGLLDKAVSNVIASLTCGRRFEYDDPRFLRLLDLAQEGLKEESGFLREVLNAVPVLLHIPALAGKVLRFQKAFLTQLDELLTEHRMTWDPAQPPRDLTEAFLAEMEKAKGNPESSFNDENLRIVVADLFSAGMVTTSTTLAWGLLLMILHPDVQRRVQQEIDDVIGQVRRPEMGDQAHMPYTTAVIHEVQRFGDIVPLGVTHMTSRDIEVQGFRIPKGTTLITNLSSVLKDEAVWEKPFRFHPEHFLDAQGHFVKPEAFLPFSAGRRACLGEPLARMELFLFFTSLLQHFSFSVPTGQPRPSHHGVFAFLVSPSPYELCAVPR
T5 sequence (P08684 whole entry): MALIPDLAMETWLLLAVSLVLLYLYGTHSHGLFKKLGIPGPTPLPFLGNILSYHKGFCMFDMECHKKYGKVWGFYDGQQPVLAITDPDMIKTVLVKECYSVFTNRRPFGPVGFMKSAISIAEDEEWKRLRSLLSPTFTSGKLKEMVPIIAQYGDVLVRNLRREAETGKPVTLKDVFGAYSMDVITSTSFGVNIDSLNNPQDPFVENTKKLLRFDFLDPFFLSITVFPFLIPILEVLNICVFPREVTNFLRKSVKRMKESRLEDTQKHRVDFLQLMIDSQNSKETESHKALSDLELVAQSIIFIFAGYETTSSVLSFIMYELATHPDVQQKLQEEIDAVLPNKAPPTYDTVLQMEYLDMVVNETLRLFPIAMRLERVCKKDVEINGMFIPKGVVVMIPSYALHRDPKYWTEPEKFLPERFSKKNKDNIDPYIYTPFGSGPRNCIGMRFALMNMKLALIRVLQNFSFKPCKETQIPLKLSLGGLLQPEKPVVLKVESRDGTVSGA

IC50 (CYP1A2): > 100 µM
IC50 (CYP2C19): > 100 µM
IC50 (CYP2C9): > 100 µM
IC50 (CYP2D6): > 100 µM
IC50 (CYP3A4): 7.5 µM
metabolite plasma concentration as % of the SCYX-7158 concentration ([1]; oral dose of 56 mg/kg SCYX-7158, all time points): approximately 1%
Cmax ([2]; male, Sprague-Dawley, rat, oral dose of 10 mg/kg SCYX-7158, plasma, read-out: Cmax): 500 ng/mL
metabolite plasma concentration as % of the SCYX-7158 concentration ([2]; oral dose of 10 mg/kg SCYX-7158, each time point): 3-5%
metabolite plasma concentration as % of the SCYX-7158 concentration ([3]; 10 mg/kg NG group, all time points): approximately 1%
AUC(0-inf) ([3]; male, cynomolgus monkey, oral, 10 mg/kg SCYX-7158 NG, plasma): 6400 ng·h/mL
Cmax ([3]; male, cynomolgus monkey, oral, 10 mg/kg SCYX-7158 nasogastric (NG), plasma): 140 ng/mL
Cmax [4]: 270 ng/mL
SMILES: CC(C)(O)c1ccc(NC(=O)c2ccc(F)cc2C(F)(F)F)cc1O [SCYX-3109]
inhibition of parasite growth (T. b. brucei 427): inactive

SMILES: O=C(Nc1ccc2c(c1)B(O)OC2)c1ccc(F)cc1C(F)(F)F [SCYX-6759, 4-fluoro-N-(1-hydroxy-1,3-dihydrobenzo[c][1], [2]oxaborol-6-yl)-2-trifluoromethylbenzamide]
efficacy in stage 2 mouse model (T. b. brucei TREU 667; 50 mg/kg twice-daily intraperitoneal (100 mg/kg/day) for 14 days): fully efficacious
efficacy in stage 2 mouse model (T. b. brucei TREU 667; 50 mg/kg twice-daily oral for 7 days): only partial efficacy
efficacy in stage 2 mouse model (T. b. brucei TREU 667; lower doses or once-daily paradigm): not active
time post-dose at which brain concentrations fell below the MIC [5]: approximately 12 h

SMILES: N=C(N)c1ccc(/N=N/Nc2ccc(C(=N)N)cc2)cc1 [berenil, diminazene, reference compound]
outcome in stage 2 model (T. b. brucei TREU 667; single 10 mg/kg i.p. on day 4 after infection (positive control)): cured
outcome in stage 2 model (T. b. brucei TREU 667; single 10 mg/kg i.p. on day 21 after infection (negative control)): do not sustain cures
time of re-infection of the hemolymphatic system (recrudescence) (T. b. brucei TREU 667; treated 21 days after infection): 35–42 days after infection

SMILES: OB(O)O [boric acid]
estimated maximum concentration of boric acid ([1]; not measured, mice, 56 mg/kg oral SCYX-7158): 0.05 µg/mL
estimated maximum concentration of boric acid ([2]; not measured, rats, 10 mg/kg oral SCYX-7158): 0.09 µg/mL
estimated maximum concentration of boric acid (borate) ([3]; not measured, equimolar to SCYX-3109, 10 mg/kg NG SCYX-7158): ≤ 0.02 µg/mL

SMILES: Nc1nc(N)nc(Nc2ccc([As]3SCC(CO)S3)cc2)n1 (centres unmarked) [melarsoprol]
toxicity to mice (GVR35 stage 2 HAT model; 20 mg/kg QD x 5 days): toxic
dose needed to effect cure (GVR35 stage 2 HAT model; QD × 5 days): 10 to 15 mg/kg

SMILES: Cc1ccc(C(=O)Nc2ccc(S(=O)(=O)O)c3cc(S(=O)(=O)O)cc(S(=O)(=O)O)c23)cc1NC(=O)c1cccc(NC(=O)Nc2cccc(C(=O)Nc3cc(C(=O)Nc4ccc(S(=O)(=O)O)c5cc(S(=O)(=O)O)cc(S(=O)(=O)O)c45)ccc3C)c2)c1 [suramin, reference compound]
attenuation of in vitro IC50 (T. b. brucei): greater than 25 fold
